Source: PubChem BioAssay (NCI)
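Values below derive from 48-hour exposures of cells grown in 96-well plates, with endpoints linearly interpolated between the two concentrations bracketing the appropriate inhibition level. Abbreviation: GI50, concentration required for 50% inhibition of growth. The concentration for full growth arrest is given as TGI.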

How the values were obtained:
Assay in all cases: DTP human tumour cell line panel, 48 h
HCC-2998 colon = tested on: HCC-2998 colon
HCT-15 colon = tested on: HCT-15 colon
KM12 colon = tested on: KM12 colon
M14 melanoma = tested on: M14 melanoma
NCI-H522 lung = tested on: NCI-H522 lung
OVCAR-4 ovarian = tested on: OVCAR-4 ovarian
OVCAR-8 ovarian = tested on: OVCAR-8 ovarian
SF-295 CNS = tested on: SF-295 CNS
SW-620 colon = tested on: SW-620 colon
HOP-92 NSCLC = tested on: HOP-92 NSCLC

Row | Compound | TGI (HCC-2998 colon) | TGI (HCT-15 colon) | TGI (KM12 colon) | TGI (M14 melanoma) | TGI (NCI-H522 lung) | TGI (OVCAR-4 ovarian) | TGI (OVCAR-8 ovarian) | TGI (SF-295 CNS) | TGI (SW-620 colon) | TGI (HOP-92 NSCLC) | GI50 (HCC-2998 colon) | GI50 (HCT-15 colon) | GI50 (HOP-92 NSCLC) | GI50 (KM12 colon) | GI50 (OVCAR-4 ovarian) | GI50 (OVCAR-8 ovarian) | GI50 (SF-295 CNS) | GI50 (SW-620 colon) | GI50 (M14 melanoma) | GI50 (NCI-H522 lung)
1 | Nc1c(-c2nc3ccccc3[nH]2)sc(=S)n1-c1ccc(Cl)cc1 | 48.8 µM | 61.8 µM | 78.3 µM | 82.7 µM | 58.1 µM | 40.4 µM | 54.5 µM | 43.6 µM | > 100 µM |  |  |  |  |  |  |  |  |  |  | 
2 | CC(C)(C)OC(=O)N1N=NC2C3OC(CC3=O)C21 (centres undefined) | > 100 µM | > 100 µM |  | > 100 µM | > 100 µM |  | > 100 µM |  | > 100 µM | > 100 µM |  |  |  |  |  |  |  |  |  | 
3 | NC(=O)N/N=C(/c1nc2ccc([N+](=O)[O-])cc2[nH]c1=O)C(O)c1ccco1 (centres undefined) | 85.3 µM | 61 µM |  | > 100 µM | > 100 µM | > 100 µM | > 100 µM | > 100 µM | > 100 µM | > 100 µM |  |  |  |  |  |  |  |  |  | 
4 | Cc1cc(O)c(C(c2ccncc2)c2c(O)cc(C)[nH]c2=O)c(=O)[nH]1 |  | > 100 µM | > 100 µM | > 100 µM | > 100 µM | > 100 µM | > 100 µM | > 100 µM |  |  |  |  |  |  |  |  |  |  |  | 
5 | CC(=O)n1ccc2c(Cl)ncnc21 | > 100 µM | > 100 µM | > 100 µM | > 100 µM | > 54.4 µM |  | > 100 µM | > 100 µM | > 100 µM | > 100 µM |  |  |  |  |  |  |  |  |  | 
6 | O=c1c2c3c(sc2n2c(-c4ccc(Br)cc4)nnc2n1Cc1ccccc1)CCCC3 | 13.4 µM | 17.8 µM | 24.7 µM |  |  | 22.4 µM | 37 µM | 7.51 µM | 26.3 µM | 16.1 µM | 3.25 µM | 4.39 µM | 3.41 µM | 10.2 µM | 6.03 µM | 15.5 µM | 2.42 µM | 13.1 µM |  | 
7 | O=C(CC(=O)c1ccccc1)c1ccccc1 |  | 6.82 µM | > 100 µM | 44.7 µM | > 100 µM | > 100 µM | > 100 µM | 99.7 µM | > 100 µM | 51.3 µM |  | 2.06 µM | 15.8 µM | 3.98 µM | 27.9 µM | 20.4 µM | 17.3 µM | 13.2 µM | 14.1 µM | 29.3 µM
8 | O=C1NC2(C=Cc3c(ccc4ccccc34)O2)Oc2ccccc21 (centres undefined) |  | 71.2 µM | 41.1 µM | > 100 µM | 38.8 µM | > 100 µM | > 100 µM | 67.5 µM | > 100 µM |  |  |  |  |  |  |  |  |  |  | 
9 | Oc1ccc(Cl)cc1-c1cc(-c2ccc(F)cc2)n[nH]1 | 5.95 µM | 22.5 µM | 2.54 µM | 17.2 µM |  | > 100 µM | 5.39 µM | 5.24 µM | 10.5 µM |  | 2.08 µM | 0.416 µM |  | 1.01 µM | 0.593 µM | 1.85 µM | 2.16 µM | 2.64 µM | 3.5 µM | 
10 | CCOC(=O)NC(=O)c1c[nH]c(=O)[nH]c1=O | > 100 µM | > 100 µM | > 100 µM | > 100 µM |  | > 100 µM | > 100 µM | > 100 µM | > 100 µM | > 100 µM |  |  |  |  |  |  |  |  |  | 
11 | ClCC#CCSc1ncnc2c1ncn2CC#CCCl | 3.11 µM | 5.97 µM | 2.8 µM | 3.13 µM | 2.73 µM | 8.29 µM | 5.24 µM | 4.59 µM | 4.79 µM |  | 1.67 µM | 1.68 µM |  | 1.39 µM | 2.12 µM | 1.78 µM | 2.05 µM | 2.17 µM | 1.47 µM | 1.14 µM
12 | CCOC(=O)/C(C#N)=C/Nc1ccc(-c2nc3ccccc3[nH]2)cc1 |  | > 100 µM | 44.1 µM | > 100 µM | > 100 µM | > 100 µM | > 100 µM | 76.8 µM | > 100 µM | > 100 µM |  | 34.1 µM | 42.1 µM | 16.1 µM | 31.4 µM | > 100 µM | 27.4 µM | 54.1 µM | 62.3 µM | 24 µM
13 | C[n+]1c(N)n(C(=O)OCc2ccccc2)c(=O)c2c1ncn2C(=O)OCc1ccccc1 | > 100 µM | > 100 µM | > 100 µM | > 100 µM | > 100 µM | > 100 µM | > 100 µM | > 100 µM | > 100 µM |  |  |  |  |  |  |  |  |  |  | 
14 | C#Cc1cc2c(N)c(C(=O)c3cc(OC)c(OC)c(OC)c3)[nH]c2cc1OC | > 100 µM | > 100 µM | > 100 µM | > 100 µM |  | > 100 µM | > 100 µM |  | > 100 µM | 37.7 µM | 42.5 µM | 0.46 µM | 0.334 µM | 0.412 µM | 0.987 µM | 2.48 µM |  | 0.396 µM | 0.521 µM | 
15 | COC(=O)C1C2CC3C(OC(=O)C31)C2OC(=O)[C@](OC)(c1ccccc1)C(F)(F)F (some centres undefined) | > 100 µM | > 100 µM | > 100 µM | > 100 µM | > 100 µM | > 100 µM | > 100 µM |  | > 100 µM | > 100 µM |  |  |  |  |  |  |  |  |  | 
16 | CO[C@H](C(=O)O)[C@@H]1Cc2cc3cc(OC4CC(OC5CC(O)C(O)C(C)O5)C(O)C(C)O4)c(C)c(O)c3c(O)c2C(=O)[C@H]1OC1CC(OC2CC(OC3CC(C)(O)C(O)C(C)O3)C(O)C(C)O2)C(O)C(C)O1 (some centres undefined) |  | > 32.5 µM | 2.59 µM | 3.59 µM | > 32.5 µM | > 32.5 µM | > 32.5 µM | > 32.5 µM | > 32.5 µM | 22.6 µM |  | 1.66 µM | 0.0736 µM | 0.233 µM | 0.607 µM | 0.284 µM | 0.167 µM | 0.245 µM | 0.443 µM | 0.134 µM
17 | N#Cc1cccc(OCc2ccccc2COc2cccc(C#N)c2)c1 | > 100 µM | > 100 µM |  | > 100 µM | > 100 µM | > 100 µM | > 100 µM | 20.3 µM | > 100 µM | 15.4 µM | > 100 µM | > 100 µM | 2.36 µM |  | 54.8 µM | 55.9 µM | 5.64 µM | > 100 µM | 43.9 µM | 98.1 µM
